One assay deals with SF-268. The assay is described as follows: Growth inhibition of human SF268 cells assessed as cell growth at 10 uM after 48 hrs by MTT assay; values are per cent of control. To be noted: SF-268, 48 h. On the technique in general: Tetrazolium assays rely on reduction of a dye to a coloured formazan, in cell work by metabolically active cells.
For a further assay, the system named is HOP-92. The experiment in a line: Growth of human HOP92 cells assessed as cell growth at 10 uM after 48 hrs by MTT assay. To be noted: HOP-92, 48 h.
Another assay relates to T47D. The assay is described as follows: Growth inhibition of human T47D cells assessed as cell growth at 10 uM after 48 hrs by MTT assay; values are per cent of control.
The test system of a further assay is OVCAR-3. The experiment in a line: Growth inhibition of human OVCAR3 cells assessed as cell growth at 10 uM after 48 hrs by MTT assay; values are per cent of control. To be noted: OVCAR-3, 48 h.
Another assay has as its system COLO 205. The assay is described as follows: Growth inhibition of human COLO205 cells assessed as cell growth at 10 uM after 48 hrs by MTT assay; values are per cent of control. To be noted: COLO 205, 48 h.
The test system of another assay is SN12C. The experiment in a line: Growth inhibition of human SN12C cells assessed as cell growth at 10 uM after 48 hrs by MTT assay; values are per cent of control.
The next assay relates to NCI-H522. The experiment in a line: Growth inhibition of human NCI-H522 cells assessed as cell growth at 10 uM after 48 hrs by MTT assay; values are per cent of control. To be noted: NCI-H522, 48 h.
The next assay deals with UACC-62. The assay is described as follows: Growth inhibition of human UACC62 cells assessed as cell growth at 10 uM after 48 hrs by MTT assay; values are per cent of control. To be noted: UACC-62, 48 h.

For the molecule `c1cncc(-c2cnn[nH]2)c1`, the growth, % of control at 10 µM in the assay with SF-268 is 113%; with HOP-92, 80.8%; in the assay with T47D, 102%; in the assay on OVCAR-3, 89.5%; with COLO 205, 23.8%; in the assay on SN12C, 102%. The growth, % of control at 10 µM amounted to 101% in the assay on NCI-H522 and 90.7% with UACC-62.

These data come from ChEMBL document CHEMBL2062496, “Identification of a sirtuin 3 inhibitor that displays selectivity over sirtuin 1 and 2” (Eur J Med Chem, 2012).
